By EC50 is commonly meant the concentration giving half of the maximal effect. A lower EC50 goes with greater potency. What is called IC50 is the concentration that inhibits the measured activity by half. Read a high IC50 as weaker potency.

Our source for the EC50 and IC50 values is ChEMBL document CHEMBL3352179, “Inhibition of O-GlcNAcase (OGA): A Potential Therapeutic Target to Treat Alzheimer's Disease” (ACS Med Chem Lett, 2014).

Bounds are passed on as bounds.

For assay [1], the target named is T1, Protein O-GlcNAcase (Rattus norvegicus, UniProt Q8VIJ5).
T1 sequence (Q8VIJ5 whole entry): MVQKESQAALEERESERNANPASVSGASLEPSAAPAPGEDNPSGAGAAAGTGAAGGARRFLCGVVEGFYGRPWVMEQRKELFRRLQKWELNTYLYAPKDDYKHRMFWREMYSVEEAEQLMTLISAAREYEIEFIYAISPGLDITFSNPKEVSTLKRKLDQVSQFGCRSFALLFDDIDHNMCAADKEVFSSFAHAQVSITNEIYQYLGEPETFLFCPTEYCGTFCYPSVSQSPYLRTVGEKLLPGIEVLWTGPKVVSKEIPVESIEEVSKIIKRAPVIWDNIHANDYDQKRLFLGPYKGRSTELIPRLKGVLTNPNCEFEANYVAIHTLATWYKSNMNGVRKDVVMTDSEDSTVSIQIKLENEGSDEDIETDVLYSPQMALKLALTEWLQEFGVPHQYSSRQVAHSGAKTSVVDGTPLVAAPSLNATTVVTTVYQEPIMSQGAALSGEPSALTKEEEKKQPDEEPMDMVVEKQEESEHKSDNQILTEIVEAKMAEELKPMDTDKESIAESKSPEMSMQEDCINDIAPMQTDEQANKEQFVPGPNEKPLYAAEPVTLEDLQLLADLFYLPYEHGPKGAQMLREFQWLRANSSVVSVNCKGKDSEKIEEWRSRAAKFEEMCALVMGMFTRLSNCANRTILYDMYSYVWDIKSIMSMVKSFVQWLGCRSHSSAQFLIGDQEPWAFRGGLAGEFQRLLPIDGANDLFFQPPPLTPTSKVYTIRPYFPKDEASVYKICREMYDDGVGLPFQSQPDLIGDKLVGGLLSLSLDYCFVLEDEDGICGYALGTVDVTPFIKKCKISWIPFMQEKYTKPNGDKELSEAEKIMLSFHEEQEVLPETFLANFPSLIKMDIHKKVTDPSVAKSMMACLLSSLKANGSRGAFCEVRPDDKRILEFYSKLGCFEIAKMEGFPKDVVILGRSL
Description: Inhibition of OGA in rat B35 cells after 16 hrs. Format: cell-based.

Assay [2] addresses T2, Protein O-GlcNAcase (Homo sapiens, UniProt O60502).
T2 sequence (O60502 whole entry): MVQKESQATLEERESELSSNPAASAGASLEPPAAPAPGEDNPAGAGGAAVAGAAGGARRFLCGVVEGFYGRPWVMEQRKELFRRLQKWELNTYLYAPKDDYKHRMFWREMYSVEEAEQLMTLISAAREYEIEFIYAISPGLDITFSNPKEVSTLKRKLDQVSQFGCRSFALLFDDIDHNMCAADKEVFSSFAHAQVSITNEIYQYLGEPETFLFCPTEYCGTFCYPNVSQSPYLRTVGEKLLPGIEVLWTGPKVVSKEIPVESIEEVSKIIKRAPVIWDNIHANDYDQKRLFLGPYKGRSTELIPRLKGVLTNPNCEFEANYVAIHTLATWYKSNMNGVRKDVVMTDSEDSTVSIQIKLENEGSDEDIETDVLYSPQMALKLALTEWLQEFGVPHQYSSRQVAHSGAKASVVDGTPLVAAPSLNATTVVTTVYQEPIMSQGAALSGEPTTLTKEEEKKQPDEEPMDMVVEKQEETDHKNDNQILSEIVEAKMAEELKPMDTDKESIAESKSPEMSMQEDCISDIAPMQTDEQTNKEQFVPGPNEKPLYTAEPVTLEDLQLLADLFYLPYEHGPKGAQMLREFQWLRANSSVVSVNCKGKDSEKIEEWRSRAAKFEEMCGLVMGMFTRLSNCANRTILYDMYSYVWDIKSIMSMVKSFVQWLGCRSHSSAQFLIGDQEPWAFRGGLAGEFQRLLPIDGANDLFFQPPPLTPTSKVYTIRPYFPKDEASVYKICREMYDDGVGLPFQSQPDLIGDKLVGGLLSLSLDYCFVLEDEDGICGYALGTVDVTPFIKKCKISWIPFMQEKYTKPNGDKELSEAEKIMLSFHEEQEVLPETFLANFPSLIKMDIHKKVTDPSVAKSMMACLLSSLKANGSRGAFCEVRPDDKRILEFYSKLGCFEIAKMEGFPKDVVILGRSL
Description: Inhibition of human His-tagged OGA using fluorescein mono-beta-D-([…]) glucopyranoside as substrate after 60 mins by fluorescence assay.

For the molecule `COC(=O)Nc1ncc(CN2CCC(c3ccccc3)CC2)s1`, the response at Protein O-GlcNAcase [1] was half-maximal at 10 µM (EC50). Moreover, the IC50 at Protein O-GlcNAcase [2] is 1 µM.

On Protein O-GlcNAcase [1], `CC(=O)Nc1ncc(CN2CCC(c3ccccc3)CC2)s1` came in with an EC50 of 0.2 µM. Besides, the concentration for half-maximal inhibition (IC50) against Protein O-GlcNAcase [2] was < 0.2 µM.

`CC(=O)Nc1ncc(CN2CCC(c3cccc(C)c3)CC2)s1`: the EC50 at Protein O-GlcNAcase [1] is < 0.2 µM. The IC50 on Protein O-GlcNAcase [2] is < 0.2 µM.

Regarding `CC(=O)Nc1ncc(CN2CCC(F)(c3ccccc3)CC2)s1`, the EC50 on Protein O-GlcNAcase [1] worked out at 1 µM. The same molecule came in with a half-maximal inhibitory concentration (IC50) on Protein O-GlcNAcase [2] of 1 µM.
